Test results from ChEMBL document CHEMBL5715954, “Silencing c-Myc translation as a therapeutic strategy through targeting PI3Kδ and CK1ε in hematological malignancies” (Blood, 2017).

Key:
Design in all cases: scale not given: the % may be the effect or the level left
[1] = biological target: T1, Mitogen-activated protein kinase 15 (Homo sapiens) (UniProt Q8TD08); experiment: Inhibition of human ERK7 assessed as enzyme activity at 1 uM using myelin basic protein as substrate preincubated for 20 mins followed by [gamma-33P]-ATP addition and measured after 120 mins by radiometric Hot-SpotSM Kinase assay relative to control
T1 sequence (whole entry): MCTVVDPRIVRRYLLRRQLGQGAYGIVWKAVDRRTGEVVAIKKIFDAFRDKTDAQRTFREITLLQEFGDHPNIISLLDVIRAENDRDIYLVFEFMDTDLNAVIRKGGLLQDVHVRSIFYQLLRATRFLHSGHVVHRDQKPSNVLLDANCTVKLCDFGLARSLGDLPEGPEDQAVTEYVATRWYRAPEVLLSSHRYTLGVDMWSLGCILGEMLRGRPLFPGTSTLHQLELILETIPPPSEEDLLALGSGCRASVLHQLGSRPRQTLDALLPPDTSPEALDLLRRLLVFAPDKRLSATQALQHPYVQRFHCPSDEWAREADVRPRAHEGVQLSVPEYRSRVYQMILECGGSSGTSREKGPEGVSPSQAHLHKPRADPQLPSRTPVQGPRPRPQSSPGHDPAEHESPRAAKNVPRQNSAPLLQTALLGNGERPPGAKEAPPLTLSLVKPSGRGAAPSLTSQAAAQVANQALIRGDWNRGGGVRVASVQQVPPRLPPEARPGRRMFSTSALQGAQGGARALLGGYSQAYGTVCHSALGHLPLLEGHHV

[2] = biological target: G protein-coupled receptor kinase 4 (Homo sapiens) (UniProt P32298); experiment: Inhibition of human GRK4 assessed as enzyme activity at 1 uM using casein as substrate preincubated for 20 mins followed by [gamma-33P]-ATP addition and measured after 120 mins by radiometric Hot-SpotSM Kinase assay relative to control
[3] = biological target: Serine/threonine-protein kinase MARK1 (Homo sapiens) (UniProt Q9P0L2); experiment: Inhibition of human MARK1 assessed as enzyme activity at 1 uM using KKKVSRSGLYRSPSMPENLNRPR as substrate preincubated for 20 mins followed by [gamma-33P]-ATP addition and measured after 120 mins by radiometric Hot-SpotSM Kinase assay relative to control
[4] = biological target: T2, Serine/threonine-protein kinase D1 (Homo sapiens) (UniProt Q15139); experiment: Inhibition of human PKCmu assessed as enzyme activity at 1 uM using KKLNRTLSVA as substrate preincubated for 20 mins followed by [gamma-33P]-ATP addition and measured after 120 mins by radiometric Hot-SpotSM Kinase assay relative to control
T2 sequence (whole entry): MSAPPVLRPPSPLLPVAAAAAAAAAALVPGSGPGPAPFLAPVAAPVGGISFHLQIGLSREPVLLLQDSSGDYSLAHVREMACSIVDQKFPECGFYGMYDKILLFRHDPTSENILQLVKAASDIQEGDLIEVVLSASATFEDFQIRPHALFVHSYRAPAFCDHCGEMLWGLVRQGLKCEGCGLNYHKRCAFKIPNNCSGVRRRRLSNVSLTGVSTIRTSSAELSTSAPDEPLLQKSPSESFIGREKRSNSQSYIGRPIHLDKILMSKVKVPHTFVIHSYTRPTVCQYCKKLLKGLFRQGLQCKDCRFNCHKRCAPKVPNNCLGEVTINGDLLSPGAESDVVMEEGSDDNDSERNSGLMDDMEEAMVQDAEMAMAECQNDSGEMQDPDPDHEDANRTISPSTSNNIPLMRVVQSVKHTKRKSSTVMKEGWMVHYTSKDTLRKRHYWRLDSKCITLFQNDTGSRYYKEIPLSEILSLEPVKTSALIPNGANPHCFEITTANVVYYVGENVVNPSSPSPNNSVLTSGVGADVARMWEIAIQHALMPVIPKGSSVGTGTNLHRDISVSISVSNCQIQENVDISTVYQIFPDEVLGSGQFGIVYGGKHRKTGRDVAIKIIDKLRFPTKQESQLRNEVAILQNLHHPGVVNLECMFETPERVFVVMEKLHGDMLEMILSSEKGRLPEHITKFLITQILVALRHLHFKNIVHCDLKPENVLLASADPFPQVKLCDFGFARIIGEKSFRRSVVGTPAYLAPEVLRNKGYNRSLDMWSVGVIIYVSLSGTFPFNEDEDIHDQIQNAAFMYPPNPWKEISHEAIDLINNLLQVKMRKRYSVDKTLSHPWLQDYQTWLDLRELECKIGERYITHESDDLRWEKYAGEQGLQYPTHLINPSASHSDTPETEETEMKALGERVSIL

[5] = biological target: Receptor-interacting serine/threonine-protein kinase 3 (Homo sapiens) (UniProt Q9Y572); experiment: Inhibition of human RIPK3 assessed as enzyme activity at 1 uM using myelin basic protein as substrate preincubated for 20 mins followed by [gamma-33P]-ATP addition and measured after 120 mins by radiometric Hot-SpotSM Kinase assay relative to control
[6] = biological target: Serine/threonine-protein kinase 38-like (Homo sapiens) (UniProt Q9Y2H1); experiment: Inhibition of human STK38L assessed as enzyme activity at 1 uM using KKRNRRLSVA as substrate preincubated for 20 mins followed by [gamma-33P]-ATP addition and measured after 120 mins by radiometric Hot-SpotSM Kinase assay relative to control
[7] = biological target: T3, Serine/threonine-protein kinase TBK1 (Homo sapiens) (UniProt Q9UHD2); experiment: Inhibition of human TBK1 assessed as enzyme activity at 1 uM using myelin basic protein as substrate preincubated for 20 mins followed by [gamma-33P]-ATP addition and measured after 120 mins by radiometric Hot-SpotSM Kinase assay relative to control
T3 sequence (whole entry): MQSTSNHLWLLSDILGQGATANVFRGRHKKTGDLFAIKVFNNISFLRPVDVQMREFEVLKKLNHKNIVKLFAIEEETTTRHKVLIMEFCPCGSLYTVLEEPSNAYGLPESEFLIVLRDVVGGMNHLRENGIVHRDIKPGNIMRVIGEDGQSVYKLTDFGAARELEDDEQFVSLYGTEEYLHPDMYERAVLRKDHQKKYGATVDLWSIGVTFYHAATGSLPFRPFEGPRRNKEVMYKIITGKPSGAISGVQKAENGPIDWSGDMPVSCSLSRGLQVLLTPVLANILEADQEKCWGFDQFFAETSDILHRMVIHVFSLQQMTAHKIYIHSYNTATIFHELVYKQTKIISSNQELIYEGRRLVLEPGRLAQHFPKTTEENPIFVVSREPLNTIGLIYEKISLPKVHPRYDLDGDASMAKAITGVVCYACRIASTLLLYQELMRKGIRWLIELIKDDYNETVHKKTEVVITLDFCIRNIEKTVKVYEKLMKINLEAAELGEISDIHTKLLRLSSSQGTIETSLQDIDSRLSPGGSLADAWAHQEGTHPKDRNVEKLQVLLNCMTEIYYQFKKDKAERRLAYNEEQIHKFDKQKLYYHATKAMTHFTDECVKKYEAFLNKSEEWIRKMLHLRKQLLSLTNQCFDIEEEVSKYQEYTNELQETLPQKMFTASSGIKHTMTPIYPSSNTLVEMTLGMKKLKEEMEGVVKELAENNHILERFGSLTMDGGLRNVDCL

Serine/threonine-protein kinase 38-like (Homo sapiens), sequence (Q9Y2H1 2-464 limits assumed): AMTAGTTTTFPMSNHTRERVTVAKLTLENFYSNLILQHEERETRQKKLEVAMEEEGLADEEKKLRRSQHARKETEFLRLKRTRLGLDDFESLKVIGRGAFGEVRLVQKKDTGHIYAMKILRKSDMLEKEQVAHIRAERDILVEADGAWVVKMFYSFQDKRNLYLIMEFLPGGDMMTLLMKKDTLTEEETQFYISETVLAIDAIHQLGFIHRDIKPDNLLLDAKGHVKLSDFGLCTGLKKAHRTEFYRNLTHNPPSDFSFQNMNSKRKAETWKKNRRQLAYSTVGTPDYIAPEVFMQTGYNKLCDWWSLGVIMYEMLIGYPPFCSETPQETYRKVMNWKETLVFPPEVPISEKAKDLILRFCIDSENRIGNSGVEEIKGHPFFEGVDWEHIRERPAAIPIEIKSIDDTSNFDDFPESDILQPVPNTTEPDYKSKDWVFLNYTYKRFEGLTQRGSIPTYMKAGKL
G protein-coupled receptor kinase 4 (Homo sapiens), sequence (P32298 whole entry, looked up): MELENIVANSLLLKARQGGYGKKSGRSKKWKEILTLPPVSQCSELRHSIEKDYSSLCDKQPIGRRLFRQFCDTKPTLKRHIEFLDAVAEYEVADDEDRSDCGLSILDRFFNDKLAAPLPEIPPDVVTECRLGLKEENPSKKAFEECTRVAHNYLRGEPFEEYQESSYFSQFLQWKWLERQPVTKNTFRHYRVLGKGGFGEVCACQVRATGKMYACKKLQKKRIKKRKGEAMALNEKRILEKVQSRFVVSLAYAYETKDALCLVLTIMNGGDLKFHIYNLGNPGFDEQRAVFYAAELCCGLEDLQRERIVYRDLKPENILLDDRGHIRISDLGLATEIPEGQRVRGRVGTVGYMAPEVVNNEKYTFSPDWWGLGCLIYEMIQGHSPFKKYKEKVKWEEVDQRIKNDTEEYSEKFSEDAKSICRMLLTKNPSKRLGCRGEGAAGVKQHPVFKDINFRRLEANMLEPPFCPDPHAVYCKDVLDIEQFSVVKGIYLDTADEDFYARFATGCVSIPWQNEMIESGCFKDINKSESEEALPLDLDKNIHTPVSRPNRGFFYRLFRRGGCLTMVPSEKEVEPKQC
Receptor-interacting serine/threonine-protein kinase 3 (Homo sapiens), sequence (Q9Y572 whole entry, looked up): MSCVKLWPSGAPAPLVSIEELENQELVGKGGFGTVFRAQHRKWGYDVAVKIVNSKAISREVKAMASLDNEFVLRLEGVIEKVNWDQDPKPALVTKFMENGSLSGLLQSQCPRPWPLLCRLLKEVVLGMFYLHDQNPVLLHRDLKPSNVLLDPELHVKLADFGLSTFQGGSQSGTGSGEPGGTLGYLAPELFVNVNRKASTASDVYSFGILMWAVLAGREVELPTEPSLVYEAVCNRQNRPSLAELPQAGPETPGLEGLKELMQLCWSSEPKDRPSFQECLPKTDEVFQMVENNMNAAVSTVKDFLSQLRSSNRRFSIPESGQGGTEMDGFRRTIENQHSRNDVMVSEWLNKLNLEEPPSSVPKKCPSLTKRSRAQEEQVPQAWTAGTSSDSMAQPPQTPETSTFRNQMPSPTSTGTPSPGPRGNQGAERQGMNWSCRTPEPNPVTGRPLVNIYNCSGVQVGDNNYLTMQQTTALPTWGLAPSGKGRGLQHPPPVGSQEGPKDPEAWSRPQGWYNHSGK
Serine/threonine-protein kinase MARK1 (Homo sapiens), sequence (Q9P0L2 whole entry, looked up): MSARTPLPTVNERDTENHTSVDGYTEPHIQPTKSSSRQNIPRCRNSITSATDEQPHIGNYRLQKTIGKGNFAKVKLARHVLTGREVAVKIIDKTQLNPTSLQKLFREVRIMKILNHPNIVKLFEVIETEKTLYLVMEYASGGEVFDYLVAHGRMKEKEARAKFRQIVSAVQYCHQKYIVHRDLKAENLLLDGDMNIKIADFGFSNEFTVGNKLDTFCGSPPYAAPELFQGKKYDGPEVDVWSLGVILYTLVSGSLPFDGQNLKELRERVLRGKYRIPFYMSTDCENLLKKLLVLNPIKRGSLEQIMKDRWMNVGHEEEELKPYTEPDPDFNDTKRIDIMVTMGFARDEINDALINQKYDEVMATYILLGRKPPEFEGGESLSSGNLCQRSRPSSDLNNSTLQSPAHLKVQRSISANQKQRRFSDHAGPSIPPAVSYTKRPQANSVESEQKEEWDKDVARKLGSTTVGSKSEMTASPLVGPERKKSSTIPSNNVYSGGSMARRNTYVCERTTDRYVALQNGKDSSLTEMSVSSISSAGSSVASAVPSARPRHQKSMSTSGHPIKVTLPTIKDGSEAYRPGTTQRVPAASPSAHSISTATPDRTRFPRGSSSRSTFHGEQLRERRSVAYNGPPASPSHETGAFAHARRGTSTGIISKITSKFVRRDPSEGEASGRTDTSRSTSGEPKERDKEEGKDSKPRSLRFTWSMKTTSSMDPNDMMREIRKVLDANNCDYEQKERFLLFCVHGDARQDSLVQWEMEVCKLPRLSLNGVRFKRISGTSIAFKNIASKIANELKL

Compound	Activity [1] [%]	Activity [2] [%]	Activity [3] [%]	Activity [4] [%]	Activity [5] [%]	Activity [6] [%]	Activity [7] [%]
C[C@H](Nc1ncnc2nc[nH]c12)c1cc2cccc(Cl)c2c(=O)n1-c1ccccc1	98.5	92.2	93.3	96.1	97.6	92.7	94.4
CC[C@H](Nc1ncnc2[nH]cnc12)c1nc2cccc(F)c2c(=O)n1-c1ccccc1	94.3	93.2	99.9	92.3	102	95.1	89.6
CC(C)Oc1ccc(-c2nn([C@@H](C)c3oc4ccc(F)cc4c(=O)c3-c3cccc(F)c3)c3ncnc(N)c23)cc1F [UMBRALISIB]	88.3	95.1	96.2	92.7	107	100	93.9
